{"source": "paper PMC3229595", "about": "“Discovery of Novel MDR-Mycobacterium tuberculosis Inhibitor by New FRIGATE Computational Screen” (PLoS ONE, 2011)", "key": {"[1]": {"target": "T1, antigen 85C (Ag85C) (Mycobacterium tuberculosis, UniProt P9WQN9)", "T1 construct": "gene fbpC", "T1 sequence (P9WQN9 46-340)": "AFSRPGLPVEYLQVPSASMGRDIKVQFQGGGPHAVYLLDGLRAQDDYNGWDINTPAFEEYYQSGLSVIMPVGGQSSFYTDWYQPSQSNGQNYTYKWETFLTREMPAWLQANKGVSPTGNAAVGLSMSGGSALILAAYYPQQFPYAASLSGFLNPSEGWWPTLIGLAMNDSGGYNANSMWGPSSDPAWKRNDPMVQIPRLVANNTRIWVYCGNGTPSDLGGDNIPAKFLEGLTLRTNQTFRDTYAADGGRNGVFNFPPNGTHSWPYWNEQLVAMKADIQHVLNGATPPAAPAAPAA", "experiment": "[…]-HSQC NMR titration (chemical shift perturbation)", "assay_type": "binding"}, "[2]": {"system": "T2, Mycobacterium smegmatis Msmeg", "T2 construct": "DSM 43465", "experiment": "microbe, parasite or virus in culture", "set-up": "species or system Mycobacterium smegmatis DSM 43465; broth microdilution MIC in CAMHB, MTT staining, visual read-out", "conditions": "Mycolicibacterium smegmatis; read-out: Msmeg growth inhibition [MIC ug/mL]", "experimental": "The BEI parameter is conceptually very similar to previously published ligand efficiency (LE) parameters that normalize logarithmic affinity by non-hydrogen atom count rather than molecular weight ^5-7. Experimental Section Antibacterial in vitro assay for M. smegmatis. For MIC assays according to the Clinical and Laboratory Standards Institute M. smegmatis (strain DSM 43465) cells were grown in CAMHB medium at 35°C to an OD625nm higher than 0.09 followed by a dilution in medium to reach OD625nm of […] (“0.5 McFarland Standard”). These cell suspensions were brought to approximately 1 * 10^6 CFU/ml which corresponds to a 1:200 dilution. Resulting cell inoculi were diluted 1:1 with medium containing increasing concentrations of test compound as indicated in 96 well plates in duplicates (cell titer and purity of inoculum was checked in parallel by plating out on CAMHB-agar). After 24 – 48 h incubation MTT-solution (5 mg/ml thiaolyl blue tetrazoliumbromide) were added to stain wells with living cells and plates were photographed ^8. Wells with the lowest concentration of compound that were free of the dark brown color of bacteria were considered MICs. Ampicillin was used as a positive control antibiotic. Learning from the rich literature of potent in vitro enzyme inhibitors that were discarded due to the lack of antibacterial activity, we assayed the 31 selected FRIGATE hits for antibacterial activity prior to in vitro follow-up work. We utilized the less pathogenic and faster growing Mtb model organism Msmeg for primary growth inhibition testing."}}, "data": [{"smiles": "Cc1cccn2c(=O)c3cc(C(=O)NCCCn4ccnc4)n(Cc4ccccc4)c3nc12", "note": "[compound 1, N-[3-(1H-imidazol-1-yl)propyl]-1-benzyl-9-methyl-4-oxo-1,4-dihydropyrido[1,2-a]pyrrolo[2,3-d]pyrimidine-2-carboxamide]", "values": [{"measurement": "Kd", "setting": "[1]", "result": 177, "unit": "µM"}, {"measurement": "MIC", "setting": "[2]", "result": "< 50", "unit": "µg/mL"}]}, {"smiles": "CC1=C(C#N)c2nc(N)c(C#N)cc2C1=Cc1ccc(-c2ccccc2C(=O)O)o1", "note": "[compound 2, 2]", "values": [{"measurement": "MIC", "setting": "[2]", "result": "> 200", "unit": "µg/mL"}]}, {"smiles": "OC(CNC1CCc2ccccc21)COc1ccc(-c2csnn2)cc1", "note": "(stereo not shown) [compound 3, 3]", "values": [{"measurement": "MIC", "setting": "[2]", "result": 100, "unit": "µg/mL"}]}]}
